{"source": "PubChem BioAssay (NCI)", "assay_in_all_cases": "DTP human tumour cell line panel, 384-well format", "key": {"SNB-19 CNS": {"test_system": "SNB-19 CNS"}, "HOP-62 NSCLC": {"test_system": "HOP-62 NSCLC"}, "CCRF-CEM leukemia": {"test_system": "CCRF-CEM leukemia"}, "UO-31 renal": {"test_system": "UO-31 renal"}, "786-0 renal": {"test_system": "786-0 renal"}, "MCF7 breast": {"test_system": "MCF7 breast"}, "OVCAR-3 ovarian": {"test_system": "OVCAR-3 ovarian"}, "RPMI-8226 leukemia": {"test_system": "RPMI-8226 leukemia"}, "NCI-H460 NSCLC": {"test_system": "NCI-H460 NSCLC"}, "MDA-MB-231 breast": {"test_system": "MDA-MB-231 breast"}, "OVCAR-8 ovarian": {"test_system": "OVCAR-8 ovarian"}, "SF-268 CNS": {"test_system": "SF-268 CNS"}, "T-47D breast": {"test_system": "T-47D breast"}, "NCI-H226 lung": {"test_system": "NCI-H226 lung"}, "CAKI-1 renal": {"test_system": "CAKI-1 renal"}, "OVCAR-4 ovarian": {"test_system": "OVCAR-4 ovarian"}, "A498 renal": {"test_system": "A498 renal"}, "K-562 leukemia": {"test_system": "K-562 leukemia"}, "BT-549 breast": {"test_system": "BT-549 breast"}, "HCT-116 colon": {"test_system": "HCT-116 colon"}, "DU-145 prostate": {"test_system": "DU-145 prostate"}, "NCI-H23 lung": {"test_system": "NCI-H23 lung"}, "LOX IMVI melanoma": {"test_system": "LOX IMVI melanoma"}, "MALME-3M melanoma": {"test_system": "MALME-3M melanoma"}, "NCI-H522 lung": {"test_system": "NCI-H522 lung"}, "HL-60(TB) leukemia": {"test_system": "HL-60(TB) leukemia"}, "MDA-MB-435 melanoma": {"test_system": "MDA-MB-435 melanoma"}, "PC-3 prostate": {"test_system": "PC-3 prostate"}, "UACC-62 melanoma": {"test_system": "UACC-62 melanoma"}, "SW-620 colon": {"test_system": "SW-620 colon"}, "SF-539 CNS": {"test_system": "SF-539 CNS"}, "A549 NSCLC": {"test_system": "A549 NSCLC"}, "SR leukemia": {"test_system": "SR leukemia"}, "SK-MEL-28 melanoma": {"test_system": "SK-MEL-28 melanoma"}, "UACC-257 melanoma": {"test_system": "UACC-257 melanoma"}, "KM12 colon": {"test_system": "KM12 colon"}, "MDA-MB-468 breast": {"test_system": "MDA-MB-468 breast"}, "HCC-2998 colon": {"test_system": "HCC-2998 colon"}, "HOP-92 NSCLC": {"test_system": "HOP-92 NSCLC"}, "IGROV1 ovarian": {"test_system": "IGROV1 ovarian"}, "OVCAR-5 ovarian": {"test_system": "OVCAR-5 ovarian"}, "SN12C renal": {"test_system": "SN12C renal"}, "MOLT-4 leukemia": {"test_system": "MOLT-4 leukemia"}, "U251 glioblastoma": {"test_system": "U251 glioblastoma"}, "EKVX NSCLC": {"test_system": "EKVX NSCLC"}, "HS 578T breast": {"test_system": "HS 578T breast"}, "NCI/ADR-RES ovarian": {"test_system": "NCI/ADR-RES ovarian"}}, "note": "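Abbreviation: GI50, concentration required for 50% inhibition of growth. TGI denotes the concentration required for complete inhibition of growth.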", "data": [{"smiles": "N#Cc1cnc(Nc2cc(NC[C@H]3CNCCO3)c(C(F)(F)F)cn2)cn1", "values": [{"measurement": "GI50", "setting": "SNB-19 CNS", "result": 9.81, "unit": "µM"}, {"measurement": "TGI", "setting": "SNB-19 CNS", "result": 62.7, "unit": "µM"}, {"measurement": "GI50", "setting": "HOP-62 NSCLC", "result": 3.75, "unit": "µM"}, {"measurement": "TGI", "setting": "HOP-62 NSCLC", "result": 16.8, "unit": "µM"}, {"measurement": "GI50", "setting": "CCRF-CEM leukemia", "result": 0.333, "unit": "µM"}, {"measurement": "TGI", "setting": "CCRF-CEM leukemia", "result": 0.976, "unit": "µM"}, {"measurement": "GI50", "setting": "UO-31 renal", "result": 0.588, "unit": "µM"}, {"measurement": "TGI", "setting": "UO-31 renal", "result": "> 100", "unit": "µM"}, {"measurement": "GI50", "setting": "786-0 renal", "result": 1.59, "unit": "µM"}, {"measurement": "TGI", "setting": "786-0 renal", "result": 15.2, "unit": "µM"}, {"measurement": "GI50", "setting": "MCF7 breast", "result": 0.728, "unit": "µM"}, {"measurement": "TGI", "setting": "MCF7 breast", "result": 20.7, "unit": "µM"}, {"measurement": "GI50", "setting": "OVCAR-3 ovarian", "result": 9.42, "unit": "µM"}, {"measurement": "TGI", "setting": "OVCAR-3 ovarian", "result": 25.4, "unit": "µM"}, {"measurement": "GI50", "setting": "RPMI-8226 leukemia", "result": 1.21, "unit": "µM"}, {"measurement": "TGI", "setting": "RPMI-8226 leukemia", "result": 5.28, "unit": "µM"}, {"measurement": "GI50", "setting": "NCI-H460 NSCLC", "result": 8.14, "unit": "µM"}, {"measurement": "TGI", "setting": "NCI-H460 NSCLC", "result": 21, "unit": "µM"}, {"measurement": "GI50", "setting": "MDA-MB-231 breast", "result": 16.8, "unit": "µM"}, {"measurement": "TGI", "setting": "MDA-MB-231 breast", "result": 42.3, "unit": "µM"}, {"measurement": "GI50", "setting": "OVCAR-8 ovarian", "result": 1.66, "unit": "µM"}, {"measurement": "TGI", "setting": "OVCAR-8 ovarian", "result": 22.2, "unit": "µM"}, {"measurement": "GI50", "setting": "SF-268 CNS", "result": 14.4, "unit": "µM"}, {"measurement": "TGI", "setting": "SF-268 CNS", "result": 30.1, "unit": "µM"}, {"measurement": "GI50", "setting": "T-47D breast", "result": 25.4, "unit": "µM"}, {"measurement": "TGI", "setting": "T-47D breast", "result": 51.3, "unit": "µM"}, {"measurement": "GI50", "setting": "NCI-H226 lung", "result": 20.1, "unit": "µM"}, {"measurement": "TGI", "setting": "NCI-H226 lung", "result": 54.1, "unit": "µM"}, {"measurement": "GI50", "setting": "CAKI-1 renal", "result": 12.2, "unit": "µM"}, {"measurement": "TGI", "setting": "CAKI-1 renal", "result": 53.8, "unit": "µM"}, {"measurement": "GI50", "setting": "OVCAR-4 ovarian", "result": 1.86, "unit": "µM"}, {"measurement": "TGI", "setting": "OVCAR-4 ovarian", "result": 34.4, "unit": "µM"}, {"measurement": "GI50", "setting": "A498 renal", "result": 0.234, "unit": "µM"}, {"measurement": "TGI", "setting": "A498 renal", "result": 0.531, "unit": "µM"}, {"measurement": "GI50", "setting": "K-562 leukemia", "result": 0.58, "unit": "µM"}, {"measurement": "TGI", "setting": "K-562 leukemia", "result": 2.23, "unit": "µM"}, {"measurement": "GI50", "setting": "BT-549 breast", "result": 0.377, "unit": "µM"}, {"measurement": "TGI", "setting": "BT-549 breast", "result": 1.71, "unit": "µM"}, {"measurement": "GI50", "setting": "HCT-116 colon", "result": 17.5, "unit": "µM"}, {"measurement": "TGI", "setting": "HCT-116 colon", "result": 47.5, "unit": "µM"}, {"measurement": "GI50", "setting": "DU-145 prostate", "result": 5.48, "unit": "µM"}, {"measurement": "TGI", "setting": "DU-145 prostate", "result": 19.4, "unit": "µM"}, {"measurement": "GI50", "setting": "NCI-H23 lung", "result": 0.508, "unit": "µM"}, {"measurement": "TGI", "setting": "NCI-H23 lung", "result": 12.3, "unit": "µM"}, {"measurement": "GI50", "setting": "LOX IMVI melanoma", "result": 14.9, "unit": "µM"}, {"measurement": "TGI", "setting": "LOX IMVI melanoma", "result": 32.6, "unit": "µM"}, {"measurement": "GI50", "setting": "MALME-3M melanoma", "result": 7.25, "unit": "µM"}, {"measurement": "TGI", "setting": "MALME-3M melanoma", "result": 22.9, "unit": "µM"}, {"measurement": "GI50", "setting": "NCI-H522 lung", "result": 13.6, "unit": "µM"}, {"measurement": "TGI", "setting": "NCI-H522 lung", "result": 26.9, "unit": "µM"}, {"measurement": "GI50", "setting": "HL-60(TB) leukemia", "result": 0.625, "unit": "µM"}, {"measurement": "TGI", "setting": "HL-60(TB) leukemia", "result": 1.76, "unit": "µM"}, {"measurement": "GI50", "setting": "MDA-MB-435 melanoma", "result": 1.77, "unit": "µM"}, {"measurement": "TGI", "setting": "MDA-MB-435 melanoma", "result": 10.5, "unit": "µM"}, {"measurement": "GI50", "setting": "PC-3 prostate", "result": 16.4, "unit": "µM"}, {"measurement": "TGI", "setting": "PC-3 prostate", "result": 40.3, "unit": "µM"}, {"measurement": "GI50", "setting": "UACC-62 melanoma", "result": 7.66, "unit": "µM"}, {"measurement": "TGI", "setting": "UACC-62 melanoma", "result": 21, "unit": "µM"}, {"measurement": "GI50", "setting": "SW-620 colon", "result": 16.8, "unit": "µM"}, {"measurement": "TGI", "setting": "SW-620 colon", "result": 39.4, "unit": "µM"}, {"measurement": "GI50", "setting": "SF-539 CNS", "result": 0.38, "unit": "µM"}, {"measurement": "TGI", "setting": "SF-539 CNS", "result": 1.18, "unit": "µM"}, {"measurement": "GI50", "setting": "A549 NSCLC", "result": 21.5, "unit": "µM"}, {"measurement": "TGI", "setting": "A549 NSCLC", "result": "> 100", "unit": "µM"}, {"measurement": "GI50", "setting": "SR leukemia", "result": 0.0572, "unit": "µM"}, {"measurement": "TGI", "setting": "SR leukemia", "result": 0.186, "unit": "µM"}, {"measurement": "GI50", "setting": "SK-MEL-28 melanoma", "result": 18.1, "unit": "µM"}, {"measurement": "TGI", "setting": "SK-MEL-28 melanoma", "result": 35.6, "unit": "µM"}, {"measurement": "GI50", "setting": "UACC-257 melanoma", "result": 17.6, "unit": "µM"}, {"measurement": "TGI", "setting": "UACC-257 melanoma", "result": 31.8, "unit": "µM"}, {"measurement": "GI50", "setting": "KM12 colon", "result": 1.67, "unit": "µM"}, {"measurement": "TGI", "setting": "KM12 colon", "result": 18, "unit": "µM"}, {"measurement": "GI50", "setting": "MDA-MB-468 breast", "result": 13.9, "unit": "µM"}, {"measurement": "TGI", "setting": "MDA-MB-468 breast", "result": 27.2, "unit": "µM"}, {"measurement": "GI50", "setting": "HCC-2998 colon", "result": 0.402, "unit": "µM"}, {"measurement": "TGI", "setting": "HCC-2998 colon", "result": 3.09, "unit": "µM"}, {"measurement": "GI50", "setting": "HOP-92 NSCLC", "result": 0.504, "unit": "µM"}, {"measurement": "TGI", "setting": "HOP-92 NSCLC", "result": 9.53, "unit": "µM"}, {"measurement": "GI50", "setting": "IGROV1 ovarian", "result": 9.13, "unit": "µM"}, {"measurement": "TGI", "setting": "IGROV1 ovarian", "result": 47.6, "unit": "µM"}, {"measurement": "GI50", "setting": "OVCAR-5 ovarian", "result": 17.1, "unit": "µM"}, {"measurement": "TGI", "setting": "OVCAR-5 ovarian", "result": 43.9, "unit": "µM"}, {"measurement": "GI50", "setting": "SN12C renal", "result": 18.3, "unit": "µM"}, {"measurement": "TGI", "setting": "SN12C renal", "result": 38.5, "unit": "µM"}, {"measurement": "GI50", "setting": "MOLT-4 leukemia", "result": 0.404, "unit": "µM"}, {"measurement": "TGI", "setting": "MOLT-4 leukemia", "result": 1.34, "unit": "µM"}, {"measurement": "GI50", "setting": "U251 glioblastoma", "result": 17.4, "unit": "µM"}, {"measurement": "TGI", "setting": "U251 glioblastoma", "result": 39.7, "unit": "µM"}, {"measurement": "GI50", "setting": "EKVX NSCLC", "result": 14.5, "unit": "µM"}, {"measurement": "TGI", "setting": "EKVX NSCLC", "result": 34, "unit": "µM"}, {"measurement": "GI50", "setting": "HS 578T breast", "result": 0.337, "unit": "µM"}, {"measurement": "TGI", "setting": "HS 578T breast", "result": 2.22, "unit": "µM"}, {"measurement": "GI50", "setting": "NCI/ADR-RES ovarian", "result": 0.963, "unit": "µM"}, {"measurement": "TGI", "setting": "NCI/ADR-RES ovarian", "result": 2.91, "unit": "µM"}]}]}
